For orientation: EC50 means the concentration giving half of the maximal effect. A lower EC50 goes with higher potency in that assay.

The subject of the first assay is ZIKV. The assay can be described thus: microbe, parasite or virus in culture. Type of assay: cell-based, Zika virus. As to conditions: 48 hrs.
The molecule “methyl ((2S,3S)-1-((S)-6-(4-chloro-5-(2-((S)-5-((methoxycarbonyl)-L-isoleucyl)-5-azaspiro[2.4]heptan-6-yl)-1-dihydroisochromeno[4′,3′:6,7]naphtho[1,2-d]imidazol-9-yl)-1H-imidazol-2-yl)-5-azaspiro[2.4]heptan-5-yl)-3-methyl-1-oxopentan-2-yl)carbamate [Compound 3]” displayed a half-maximal effective concentration (EC50) of 18.6 nM.
The molecule `COC(=O)N[C@H](C(=O)N1[C@H](c2nc(Cl)c(-c3ccc4c(c3)COc3cc5ccc6[nH]c([C@@H]7C[C@@H]8CCC[C@@H]8N7C(=O)[C@@H](NC(=O)OC)C(C)(C)C(F)(F)F)nc6c5cc3-4)[nH]2)C[C@@H]2CCC[C@@H]21)C(C)(C)C(F)(F)F` [Compound 37, methyl ((S)-1-((2S,3aS,6aS)-2-(4-chloro-5-(2-((2S,3aS,6aS)-1-((S)-4,4,4-trifluoro-2-((methoxycarbonyl)amino)-3,3-dimethylbutanoyl)octahydrocyclopenta[b]pyrrol-2-yl)-1,11-dihydroisochromeno[4′,3′:6,7]naphtho[1,2-d]imidazol-9-yl)-1H-imidazol-2-yl)hexahydrocyclopenta[b]pyrrol-l(2H)-yl)-4,4,4-trilluoro-3,3-dimethyl-1-oxobutan-2-yl)carbamate] gave a half-maximal effective concentration (EC50) of 13.3 nM.

The same assay, now with this note: Zika virus, Huh-7; 48 hrs.
Turning to `COC(=O)N[C@H](C(=O)N1CCC[C@H]1c1nc(Cl)c(-c2ccc3c(c2)COc2cc4c(ccc5nc([C@@H]6CCCN6C(=O)[C@@H](NC(=O)OC)C(C)(C)C)[nH]c54)cc2-3)[nH]1)C(C)(C)C` [Compound 30, methyl ((S)-1-((S)-2-(4-chloro-5-(2-((S)-1-((S)-2-((methoxycarbonyl)amino)-3,3-dimethylbutanoyl)pyrrolidin-2-yl)-1,11-dihydroisochromeno[4′,3′:6,7]naphtho[1,2-d]imidazol-9-yl)-1H-imidazol-2-yl)pyrrolidin-1-yl)-3,3-dimethyl-1-oxobutan-2-yl)carbamate], it took 44.7 nM to reach a half-maximal effect (EC50).
Still for that read-out and setting: the value for `CC[C@H](C)[C@H](NC(=O)OC)C(=O)N1C[C@@H](COC)C[C@H]1c1nc(Cl)c(-c2ccc3c(c2)COc2cc4c(ccc5nc([C@@H]6CC[C@H](C)N6C(=O)[C@@H](NC(=O)OC)C(C)C)[nH]c54)cc2-3)[nH]1` [Compound 14, methyl ((S)-1-((2S,5S)-2-(9-(4-chloro-2-((2S,4S)-1-((methoxycarbonyl)-L-isoleucyl)-4-(methoxymethyl)pyrrolidin-2-yl)-1H-imidazol-5-yl)-1,11-dihydroisochromeno[4′,3′:6,7]naphtho[1,2-d]imidazol-2-yl)-5-methylpyrrolidin-1-yl)-3-methyl-1-oxobutan-2-yl)carbamate] was 9.7 nM.
For the molecule `COC(=O)N[C@H](C(=O)N1[C@@H](C)CC[C@H]1c1nc(C(C)C)c(-c2ccc3c(c2)COc2cc4c(ccc5nc([C@@H]6CC[C@H](C)N6C(=O)[C@@H](NC(=O)OC)C(C)(C)CF)[nH]c54)cc2-3)[nH]1)C(C)(C)CF` [Compound 47, methyl ((S)-4-fluoro-1-((2S,5S)-2-(5-(2-((2S,5S)-1-((S)-4-fluoro-2-((methoxycarbonyl)amino)-3,3-dimethylbutanoyl)-5-methylpyrrolidin-2-yl)-1,11-dihydroisochromeno[4′,3′:6,7]naphtho[1,2-d]imidazol-9-yl)-4-isopropyl-1H-imidazol-2-yl)-5-methylpyrrolidin-1-yl)-3,3-dimethyl-1-oxobutan-2-yl)carbamate], the 50% effective concentration (EC50) came to 21.7 nM.
On to `COC(=O)N[C@H](C(=O)N1[C@@H](C)CC[C@H]1c1nc(C(C)C)c(-c2ccc3c(c2)COc2cc4c(ccc5nc([C@@H]6CC[C@H](C)N6C(=O)[C@@H](NC(=O)OC)C(C)C)[nH]c54)cc2-3)[nH]1)C(C)C` [Compound 43, methyl ((S)-1-((2S,5S)-2-(4-isopropyl-5-(2-((2S,5S)-1-((methoxycarbonyl)-L-valyl)-5-methylpyrrolidin-2-yl)-1,11-dihydroisochromeno[4′,3′:6,7]naphtho[1,2-d]imidazol-9-yl)-1H-imidazol-2-yl)-5-methylpyrrolidin-1-yl)-3-methyl-1-oxobutan-2-yl)carbamate], for which the EC50 is 57.7 nM.

These data come from patent publication US12037340B2, “Pentacyclic derivatives as Zika virus inhibitors” (Gilead Sciences, Inc., priority 2021, dated 2024).
